The text below walks through data of US9481676B2, “Azepino[4,5-B]indoles and methods of use” (Medivation Technologies, Inc., priority 2008, dated 2016).

The target of the assay is T1, human recombinant serotonin (5-Hydroxytryptamine) 5-HT2A receptor (Homo sapiens, UniProt P28223).
T1 construct: expressed in transfected cells; host or cells: CHO-K1 cells
T1 sequence (P28223 whole entry): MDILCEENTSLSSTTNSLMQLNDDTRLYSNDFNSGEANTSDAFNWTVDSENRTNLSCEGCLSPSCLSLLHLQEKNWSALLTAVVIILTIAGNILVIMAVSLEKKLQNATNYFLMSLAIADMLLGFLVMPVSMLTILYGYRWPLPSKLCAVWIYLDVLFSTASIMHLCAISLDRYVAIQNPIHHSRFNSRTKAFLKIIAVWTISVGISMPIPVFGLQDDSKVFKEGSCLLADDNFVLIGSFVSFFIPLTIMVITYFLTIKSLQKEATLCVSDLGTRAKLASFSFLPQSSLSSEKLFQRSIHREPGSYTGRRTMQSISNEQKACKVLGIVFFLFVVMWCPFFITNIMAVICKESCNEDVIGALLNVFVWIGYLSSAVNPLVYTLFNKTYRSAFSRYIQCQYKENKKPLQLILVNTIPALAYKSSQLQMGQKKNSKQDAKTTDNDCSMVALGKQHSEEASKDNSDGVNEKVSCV
Description: Serotonin 5-HT2A radioligand binding ([3H]Ketanserin). To be noted: compound at 1 μM; read-out: Serotonin (1 μM) 5-HT2A, percent inhibition of specific binding. An outline of the steps:
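Percent inhibition of specific [3H]ketanserin (0.5 nM) binding, filtration read-out, with compounds at ≤1 μM (1% DMSO vehicle). Receptor source: recombinant human 5-HT2A in CHO-K1 cells, 50 mM Tris-HCl pH 7.4, 60 min, 25 °C; 1 μM mianserin gives nonspecific binding.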
Regarding `CN1CCc2c(n(CCc3ccc(C(F)(F)F)nc3)c3ccc(Cl)cc23)CC1` [Compound No. 1, 9-chloro-6-(2-(6-(trifluoromethyl)pyridin-3-yl)ethyl)-1,2,3,4,5,6-hexahydro-3-methylazepino[4,5-b]indole], the inhibition at 1 µM worked out at 98%. The figure for `C/C(=C/n1c2c(c3cc(Cl)ccc31)CCN(C)CC2)c1ccc(Cl)cc1Cl` [Compound No. 152, (Z)-9-chloro-6-(2-(2,4-dichlorophenyl)prop-1-enyl)-1,2,3,4,5,6-hexahydro-3-methylazepino[4,5-b]indole] is 100%; for `COc1ccc(C(O)Cn2c3c(c4cc(C)ccc42)CCN(C)CC3)cc1OC` (stereo not drawn) [Compound No. 227, 1-(3,4-dimethoxyphenyl)-2-(3,9-dimethyl-2,3,4,5-tetrahydroazepino[4,5-b]indol-6(1H)-yl)ethanol] it is 85%; for `Cc1ccc2c(c1)c1c(n2CC(=O)N2CCC(C)CC2)CCN(C)CC1` [Compound No. 225, 2-(3,9-dimethyl-2,3,4,5-tetrahydroazepino[4,5-b]indol-6(1H)-yl)-1-(4-methylpiperidin-1-yl)ethanone] it is 38%. The figure for `CN1CCc2c(n(/C=C/c3ccccc3F)c3ccc(Cl)cc23)CC1` [Compound No. 83, (E)-9-chloro-6-(2-fluorostyryl)-3-methyl-1,2,3,4,5,6-hexahydro azepino[4,5-b]indole] is 99%; for `CC1CCN(C(=O)Cn2c3c(c4cc(Cl)ccc42)CCN(C)CC3)CC1` [Compound No. 76, 2-(9-chloro-2,3,4,5-tetrahydro-3-methylazepino[4,5-b]indol-6(1H)-yl)-1-(4-methylpiperidin-1-yl)ethanone] it is 52%. On to `Cc1ccc2c(c1)c1c(n2CC(=O)Nc2ccccc2)CCN(C)CC1` [Compound No. 79, 2-(2,3,4,5-tetrahydro-3,9-dimethylazepino[4,5-b]indol-6(1H)-yl)-N-phenylacetamide], for which the inhibition at 1 µM was -8%. Consider `C=C(Cn1c2c(c3cc(Cl)ccc31)CCN(C)CC2)c1ccc(F)cc1` [Compound No. 82, 9-chloro-6-(2-(4-fluorophenyl)allyl)-3-methyl-1,2,3,4,5,6-hexahydroazepino[4,5-b]indole], for which the inhibition at 1 µM was found to be 98%. Then `Cc1cncc(CCn2c3c(c4cc(Cl)ccc42)CCN(C)CC3)c1` [Compound No. 3, 9-chloro-3-methyl-6-(2-(5-methylpyridin-3-yl)ethyl)-1,2,3,4,5,6-hexahydroazepino[4,5-b]indole], with 95%.

For the molecule `COc1ccc(/C=C/n2c3c(c4cc(Cl)ccc42)CCN(C)CC3)cc1` [Compound No. 78, 6-(4-methoxystyryl)-9-chloro-1,2,3,4,5,6-hexahydro-3-methylazepino[4,5-b]indole], the inhibition at 1 µM came out at 100%. Take `COc1ccc(C(O)Cn2c3c(c4cc(Cl)ccc42)CCN(C)CC3)cc1OC` (stereo not drawn) [Compound No. 77, 2-(9-chloro-2,3,4,5-tetrahydro-3-methylazepino[4,5-b]indol-6(1H)-yl)-1-(3,4-dimethoxyphenyl)ethanol]: the inhibition at 1 µM came out at 90%. Then `CN1CCc2c(n(/C=C/c3ccccc3)c3ccc(Cl)cc23)CC1` [Compound No. 228, (E)-9-chloro-3-methyl-6-styryl-1,2,3,4,5,6-hexahydroazepino[4,5-b]indole], with 99%; and `C/C(=C\n1c2c(c3cc(Cl)ccc31)CCN(C)CC2)c1ccc(F)cc1` [Compound No. 2, 9-chloro-6-((E)-2-(4-fluorophenyl)prop-1-enyl)-1,2,3,4,5,6-hexahydro-3-methylazepino[4,5-b]indole], with 99%.

Consider `Cc1ccc2c(c1)c1c(n2CC(=O)N2CCNCC2)CCN(C)CC1` [Compound No. 224, 2-(3,9-dimethyl-2,3,4,5-tetrahydroazepino[4,5-b]indol-6(1H)-yl)-1-(piperazin-1-yl)ethanone], for which the inhibition at 1 µM is -7%. Then `C/C(=C/n1c2c(c3cc(C)ccc31)CCN(C)CC2)c1ccc(Cl)cc1Cl` [Compound No. 174, (Z)-6-(2-(2,4-dichlorophenyl)prop-1-enyl)-1,2,3,4,5,6-hexahydro-3,9-dimethylazepino[4,5-b]indole], with 102%.

Turning to `COc1ccc(/C=C/n2c3c(c4cc(C)ccc42)CCN(C)CC3)cc1F` [Compound No. 180, (E)-6-(3-fluoro-4-methoxystyryl)-1,2,3,4,5,6-hexahydro-3,9-dimethylazepino[4,5-b]indole], the inhibition at 1 µM came to 101%. Take `COc1ccc(/C=C/n2c3c(c4cc(Cl)ccc42)CCN(C)CC3)cc1OC` [Compound No. 226, (E)-9-chloro-6-(3,4-dimethoxystyryl)-3-methyl-1,2,3,4,5,6-hexahydroazepino[4,5-b]indole]: the inhibition at 1 µM came out at 92%. The figure for `COc1ccc(/C=C/n2c3c(c4cc(Cl)ccc42)CCN(C)CC3)cc1F` [Compound No. 158, (E)-6-(3-fluoro-4-methoxystyryl)-9-chloro-1,2,3,4,5,6-hexahydro-3-methylazepino[4,5-b]indole] is 101%.

Usually inhibition stands for the relative decrease from the control value, in per cent.
